According to the supplement of paper PMC10307832:

Assays:
Experiment in all cases: relative viability (nuclei count vs DMSO), 5 days (fraction); higher = more cells survive
Daporinad + Vorinostat = compound: O=C(/C=C/c1cccnc1)NCCCCC1CCN(C(=O)c2ccccc2)CC1 [Daporinad] + O=C(CCCCCCC(=O)Nc1ccccc1)NO [Vorinostat] (partner 1 µM)
In short: (§1)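 Five library-drug doses in √10 steps were combined with a fixed anchor-drug dose, or a single drug was given alone, by pin tool to lung cancer cell lines in 1536-well plates the day after seeding. Nuclei were stained and counted after 5 days. Relative viability is the nuclei count in treated wells over that in vehicle wells, taken as the median of duplicate plates.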

R406 + Phenformin = compound: COc1cc(Nc2ncc(F)c(Nc3ccc4c(n3)NC(=O)C(C)(C)O4)n2)cc(OC)c1OC [R406] + N=C(N)NC(=N)NCCc1ccccc1 [Phenformin] (partner 250 µM)
In short: as §1

Daporinad + Lapatinib = compound: O=C(/C=C/c1cccnc1)NCCCCC1CCN(C(=O)c2ccccc2)CC1 [Daporinad] + CS(=O)(=O)CCNCc1ccc(-c2ccc3ncnc(Nc4ccc(OCc5cccc(F)c5)c(Cl)c4)c3c2)o1 [Lapatinib] (partner 2 µM)
In short: as §1

R406 + Vorinostat = compound: COc1cc(Nc2ncc(F)c(Nc3ccc4c(n3)NC(=O)C(C)(C)O4)n2)cc(OC)c1OC [R406] + O=C(CCCCCCC(=O)Nc1ccccc1)NO [Vorinostat] (partner 1 µM)
In short: as §1

Row | Cell Line | relative viability (Daporinad + Vorinostat; first compound 0.0005 µM) | relative viability (Daporinad + Vorinostat; first compound 0.001581 µM) | relative viability (Daporinad + Vorinostat; first compound 0.005 µM) | relative viability (Daporinad + Vorinostat; first compound 0.01581 µM) | relative viability (R406 + Phenformin; first compound 0.08 µM) | relative viability (R406 + Phenformin; first compound 0.253 µM) | relative viability (R406 + Phenformin; first compound 0.8 µM) | relative viability (R406 + Phenformin; first compound 2.53 µM) | relative viability (R406 + Phenformin; first compound 8 µM) | relative viability (Daporinad + Lapatinib; first compound 0.0005 µM) | relative viability (Daporinad + Lapatinib; first compound 0.001581 µM) | relative viability (Daporinad + Lapatinib; first compound 0.005 µM) | relative viability (Daporinad + Lapatinib; first compound 0.01581 µM) | relative viability (R406 + Vorinostat; first compound 0.08 µM) | relative viability (R406 + Vorinostat; first compound 0.253 µM) | relative viability (R406 + Vorinostat; first compound 0.8 µM) | relative viability (R406 + Vorinostat; first compound 2.53 µM) | relative viability (R406 + Vorinostat; first compound 8 µM)
1 | NCI-H661 | 0.766 | 0.709 | 0.461 | 0.568 | 0.288 | 0.263 | 0.267 | 0.273 | 0.226 | 0.374 | 0.443 | 0.403 | 0.402 | 0.813 | 0.772 | 0.737 | 0.796 | 0.724
2 | NCI-H1666 | 0.98 | 1.03 | 0.956 | 1.07 | 0.542 | 0.576 | 0.59 | 0.616 | 0.476 | 0.612 | 0.633 | 0.739 | 0.752 | 1.02 | 1.09 | 1.05 | 1.1 | 1.03
3 | NCI-H2085 | 0.737 | – | 0.92 | 0.966 | 0.763 | 0.811 | 0.769 | 0.316 | 0.495 | 0.739 | 0.741 | 0.871 | 0.855 | 0.749 | 0.8 | 0.847 | 0.691 | 0.561
4 | NCI-H1734 | 0.837 | 0.897 | 0.729 | 0.301 | 0.374 | 0.483 | 0.407 | 0.257 | 0.202 | 1.05 | 1.08 | 0.986 | 0.65 | 0.747 | 0.918 | 0.909 | 0.366 | 0.309
5 | NCI-H2126 | 0.862 | 0.836 | 0.948 | 0.91 | 0.527 | 0.554 | 0.516 | 0.529 | 0.359 | 0.799 | 0.677 | 0.752 | 0.82 | 0.833 | 0.797 | 0.819 | 0.581 | 0.707
6 | EMC-BAC-2 | 0.319 | 0.567 | 0.421 | 0.301 | 0.516 | 0.587 | 0.616 | 0.388 | 0.198 | 0.93 | 0.885 | 0.846 | 0.336 | 0.405 | 0.785 | 0.53 | 0.411 | 0.145
7 | NCI-H1993 | 0.766 | 0.723 | 0.775 | 0.88 | 0.503 | 0.474 | 0.525 | 0.505 | 0.569 | 0.78 | 0.811 | 0.977 | 0.793 | 0.892 | 1.03 | 0.963 | 0.433 | 0.447
8 | NCI-H596 | 0.582 | 0.321 | 0.737 | 0.4 | 0.672 | 0.845 | 0.967 | 0.703 | 0.281 | 0.941 | 1.22 | 1.08 | 0.544 | 0.659 | 0.681 | 0.72 | 0.38 | 0.263
9 | NCI-H650 | 0.465 | 0.488 | 0.511 | 0.399 | 0.416 | 0.498 | 0.463 | 0.295 | 0.337 | 0.889 | 1.25 | 1.19 | 1.31 | 0.494 | 0.442 | 0.495 | 0.439 | 0.331
10 | SW 1573 | 0.715 | 1.12 | 0.535 | 0.305 | 0.371 | 0.43 | 0.469 | 0.263 | 0.151 | 1.12 | 0.322 | 1.2 | 0.833 | 0.57 | 1.18 | 0.947 | 0.658 | 0.305
11 | NCI-H1650 | 0.518 | 0.746 | 0.547 | 0.322 | 0.438 | 0.497 | 0.508 | 0.154 | 0.146 | 0.792 | 0.922 | 0.95 | 0.875 | 0.635 | 0.634 | 0.664 | 0.396 | 0.389
12 | NCI-H2009 | 0.745 | 0.79 | 0.708 | 0.347 | 0.47 | 0.501 | 0.487 | 0.333 | 0.185 | 1.3 | 1.02 | 1.07 | 0.9 | 0.711 | 0.749 | 0.785 | 0.739 | 0.363
13 | LOU-NH91 | 0.929 | 1.01 | 1.1 | 1.02 | 0.711 | 0.72 | 0.713 | 0.416 | 0.391 | 0.767 | 0.788 | 0.932 | 0.952 | 0.926 | 0.993 | 0.914 | 0.53 | 0.498
14 | NCI-H2405 | 0.851 | 1.06 | 0.874 | 0.31 | 0.399 | 0.427 | 0.402 | 0.284 | 0.195 | 1.1 | 1.25 | 1.12 | 0.444 | 1 | 1.39 | 1.14 | 0.624 | 0.245
15 | LCLC-97TM1 | 0.547 | 0.686 | 0.867 | 1.1 | 0.351 | 0.407 | 0.379 | 0.251 | 0.351 | 0.813 | 0.795 | 1.2 | 0.797 | 0.732 | 0.908 | 1.38 | 0.569 | 0.468
16 | NCI-H647 | 0.527 | 0.483 | 0.534 | 0.49 | 0.423 | 0.561 | 0.78 | 0.432 | 0.12 | 1.13 | 1.34 | 1.19 | 1.01 | 0.436 | 0.645 | 0.611 | 0.66 | 0.113
